Results as given in ChEMBL document CHEMBL1154357, “Total synthesis of (-)-uniflorine A” (J Nat Prod, 2009).

Target: Sucrase-isomaltase, intestinal (Rattus norvegicus, UniProt P23739)
Assay: Inhibition of rat intestinal sucrase

Sucrase-isomaltase, intestinal, sequence (P23739 1-1013 limits assumed): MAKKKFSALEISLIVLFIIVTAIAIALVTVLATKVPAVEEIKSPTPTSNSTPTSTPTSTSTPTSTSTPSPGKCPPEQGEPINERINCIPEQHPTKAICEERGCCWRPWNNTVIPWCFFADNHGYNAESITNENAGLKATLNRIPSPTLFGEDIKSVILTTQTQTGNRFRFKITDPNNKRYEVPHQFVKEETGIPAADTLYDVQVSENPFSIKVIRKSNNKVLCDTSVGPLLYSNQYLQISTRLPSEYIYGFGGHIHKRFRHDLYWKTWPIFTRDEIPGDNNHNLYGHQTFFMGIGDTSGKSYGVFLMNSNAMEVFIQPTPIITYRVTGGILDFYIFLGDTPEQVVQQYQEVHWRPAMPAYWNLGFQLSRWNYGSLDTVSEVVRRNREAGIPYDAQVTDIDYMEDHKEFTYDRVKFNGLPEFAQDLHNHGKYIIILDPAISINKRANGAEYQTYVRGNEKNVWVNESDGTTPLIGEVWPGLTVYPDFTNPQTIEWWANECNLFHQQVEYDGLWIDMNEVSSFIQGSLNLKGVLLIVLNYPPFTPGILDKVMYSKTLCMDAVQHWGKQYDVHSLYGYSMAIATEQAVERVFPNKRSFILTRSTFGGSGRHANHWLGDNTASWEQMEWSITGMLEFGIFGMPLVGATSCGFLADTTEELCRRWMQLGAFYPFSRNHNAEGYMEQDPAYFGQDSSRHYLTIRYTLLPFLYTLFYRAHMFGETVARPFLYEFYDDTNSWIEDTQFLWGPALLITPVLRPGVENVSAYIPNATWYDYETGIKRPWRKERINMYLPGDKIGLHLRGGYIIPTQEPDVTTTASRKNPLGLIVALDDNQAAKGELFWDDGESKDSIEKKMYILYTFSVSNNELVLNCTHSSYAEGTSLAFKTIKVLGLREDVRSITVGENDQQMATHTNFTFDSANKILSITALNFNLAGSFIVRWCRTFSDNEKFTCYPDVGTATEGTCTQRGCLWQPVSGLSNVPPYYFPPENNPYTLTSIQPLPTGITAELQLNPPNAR
Sucrase-isomaltase, intestinal, sequence (P23739 1014-1841 limits assumed): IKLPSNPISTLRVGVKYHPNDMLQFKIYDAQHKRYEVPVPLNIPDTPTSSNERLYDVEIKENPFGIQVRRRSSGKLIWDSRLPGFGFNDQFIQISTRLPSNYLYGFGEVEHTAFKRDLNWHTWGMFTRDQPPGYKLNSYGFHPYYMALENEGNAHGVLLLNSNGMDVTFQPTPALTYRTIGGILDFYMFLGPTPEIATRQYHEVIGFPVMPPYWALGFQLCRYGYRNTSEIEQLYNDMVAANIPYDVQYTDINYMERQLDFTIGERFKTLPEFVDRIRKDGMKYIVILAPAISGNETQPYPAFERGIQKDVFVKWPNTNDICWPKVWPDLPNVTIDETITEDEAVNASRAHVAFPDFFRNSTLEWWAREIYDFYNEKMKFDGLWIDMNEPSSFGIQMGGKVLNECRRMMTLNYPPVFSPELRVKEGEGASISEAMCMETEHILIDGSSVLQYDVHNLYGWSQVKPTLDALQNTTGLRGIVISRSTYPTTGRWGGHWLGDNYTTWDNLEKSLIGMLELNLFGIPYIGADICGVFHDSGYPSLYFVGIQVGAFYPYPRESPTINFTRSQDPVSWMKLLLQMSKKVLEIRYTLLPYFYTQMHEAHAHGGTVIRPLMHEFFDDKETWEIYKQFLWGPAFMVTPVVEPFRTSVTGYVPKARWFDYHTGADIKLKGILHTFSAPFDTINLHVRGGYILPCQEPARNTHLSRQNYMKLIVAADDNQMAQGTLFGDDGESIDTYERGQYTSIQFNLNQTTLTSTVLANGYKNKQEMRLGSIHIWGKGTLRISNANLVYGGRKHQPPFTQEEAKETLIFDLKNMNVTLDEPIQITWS

| Compound | IC50 [µM] |
| --- | --- |
| O[C@H]1[C@H](O)[C@@H](O)CN2C[C@@H](O)[C@@H](O)[C@H]12 | 3.1 |
| O[C@H]1[C@H]2[C@H](O)[C@H](O)CN2[C@H](O)C[C@H]1O [UNIFLORINE B] | 1.8 |
